Experimental data published in US10206388B2, “Formulation component” (SYNGENTA LIMITED, priority 2011, dated 2019).

Assays:
Assay type in all cases: in vivo
[1] = tested on: four weed species (POLCO, BRAL, DIGSA, COMBE); assay: Glasshouse weed test, fomesafen with adjuvants, mean across species; settings: mean over two rates, three replicates, 14 and 21 days
Method: An agrochemical composition was prepared containing 0.2% v/v of the adjuvant in a track sprayer and was applied at a volume of 200 liters per hectare. The adjuvant oils were emulsified using a small amount of the surfactant Pluronic® PE 10500, which was present in the composition at a concentration of 0.02% v/v. Fomesafen was applied at either 60 or 120 grams of pesticide per hectare on each of the weed species. The weed species and their growth stage at spraying were Polygonum convolvulus (POLCO; growth stage 13-14), Brachiaria plantaginea (BRAL; growth stage 13-14), Digitaria sanguinalis (DIGSA; growth stage 14), and Commelina benghalensis (COMBE; growth stage 13-14).
(§1) Each spray test was replicated three times. The efficacy of the herbicide was assessed visually and expressed as a percentage of the leaf area killed. Samples were assessed at time periods of 14 and 21 days following application. The results shown in Table 20 below are mean averages over the two rates of fomesafen, three replicates the two assessment timings, and the four weed species, and are compared to the efficacy of fomesafen in the absence of an adjuvant, and fomesafen in the presence of the commercially available adjuvant Turbocharge®.
An agrochemical composition was prepared containing either 0.2, 0.1, 0.05 or 0.025% v/v of the adjuvant in a track sprayer and was applied at a volume of 200 liters per hectare. The commercial adjuvant Turbocharge® was applied at 0.5% v/v. Fomesafen was applied at either 60 or 120 grams of pesticide per hectare on each of the weed species. The weed species and their growth stage at spraying were Polygonum convolvulus (POLCO; growth stage 13-14), Brachiaria plantaginea (BRAL; growth stage 12-13), Digitaria sanguinalis (DIGSA; growth stage 13), and Commelina benghalensis (COMBE; growth stage 12).
as §1, with “24” for “20”, “Turbocharge®. […]” for “Turbocharge®.”
Each spray test was replicated three times. The efficacy of the herbicide was assessed visually and expressed as a percentage of the leaf area killed. Samples were assessed at time periods of 14 and 21 days following application. […]

[2] = tested on: Setaria viridis (SETVI); assay: Glasshouse weed test, fomesafen with adjuvants; settings: Table 8, Example 6: fomesafen 60 or 120 g/ha; adjuvant 0.2% v/v; mean over two rates, three replicates, 7, 14 and 20 days
Method: (§2) The aromatic ester Finsolv® TN (C12-C15 alkyl benzoate) was tested in a glasshouse against four weed species using the herbicide fomesafen. An agrochemical composition was prepared containing 0.2% v/v of the adjuvant in a track sprayer and was applied at a volume of 200 liters per hectare. Fomesafen was applied at either 60 or 120 grams of pesticide per hectare on each of the weed species. The weed species and their growth stage at spraying were Chenopodium album (CHEAL; growth stage 14), Abutilon theophrasti (ABUTH; growth stage 12), Setaria viridis (SETVI; growth stage 13), and Xanthium strumarium (XANST; growth stage 12).
(§3) Each spray test was replicated three times. The efficacy of the herbicide was assessed visually and expressed as a percentage of the leaf area killed. Samples were assessed at time periods of 7, 14 and 20 days following application. The results shown in Table 8 below are mean averages over the two rates of fomesafen, three replicates and the three assessment timings, and are compared to the efficacy of fomesafen in the absence of an adjuvant, and fomesafen in the presence of the commercially available adjuvant Turbocharge®.

[3] = tested on: Xanthium strumarium (XANST); assay: Glasshouse weed test, fomesafen with adjuvants; settings: Table 8, Example 6: fomesafen 60 or 120 g/ha; adjuvant 0.2% v/v; mean over two rates, three replicates, 7, 14 and 20 days
Method: as §2, §3

[4] = tested on: Abutilon theophrasti (ABUTH); assay: Glasshouse weed test, fomesafen with adjuvants; settings: Table 8, Example 6: fomesafen 60 or 120 g/ha; adjuvant 0.2% v/v; mean over two rates, three replicates, 7, 14 and 20 days
Method: as §2, §3

[5] = tested on: Chenopodium album (CHEAL); assay: Glasshouse weed test, fomesafen with adjuvants; settings: Table 8, Example 6: fomesafen 60 or 120 g/ha; adjuvant 0.2% v/v; mean over two rates, three replicates, 7, 14 and 20 days
Method: as §2, §3

[6] = tested on: four weed species (CHEAL, ABUTH, SETVI, XANST); assay: Glasshouse weed test, fomesafen with adjuvants, mean across species; settings: adjuvant 0.2% v/v, mean over two rates
Method: as §2, §3
A second experiment was conducted to assess the efficacy of Finsolv® TN as an adjuvant in compositions of fomesafen. This was carried out as outlined above, with the following change: samples were assessed at 6, 14 and 20 days post application.
The results shown in Table 9 below are mean averages over the two rates of fomesafen, three replicates, three assessment timings, and four weed species and are compared to the efficacy of fomesafen in the absence of an adjuvant, and fomesafen in the presence of the commercially available tank-mix adjuvant, Turbocharge®.
An agrochemical composition was prepared containing 0.2% v/v of the adjuvant in a track sprayer and was applied at a volume of 200 liters per hectare. […]
Each spray test was replicated three times. The efficacy of the herbicide was assessed visually and expressed as a percentage of the leaf area killed. Samples were assessed at time periods of 7, 14 and 20 days following application. […]

For `CS(=O)(=O)NC(=O)c1cc(Oc2ccc(C(F)(F)F)cc2Cl)ccc1[N+](=O)[O-]` [Fomesafen, fomesafen], the “Mean percentage kill, Mean across species” value ([1]; Table 20, Example 16: fomesafen 60 or 120 g/ha, adjuvant 0.2% v/v emulsified with Pluronic PE 10500 0.02% v/v) was 24.3D %, the “Mean percentage kill, Mean across species” value ([1]; Table 24, Example 20: absence of an adjuvant, fomesafen 60 or 120 g/ha) was 17.8E % and the “Mean percentage kill, Mean across species” value ([1]; Table 28, Example 25: fomesafen 60 or 120 g/ha, adjuvant 0.2% v/v) was 32.8C %. The “Mean percentage kill, Mean across species” value ([1]; Table 34, Example 34: fomesafen 60 or 120 g/ha, adjuvant 0.2% v/v) was 17.8B %, the “Mean percentage kill SETVI” value [2] was 10.3 B % and the “Mean percentage kill XANST” value [3] was 59.2 C %. For the same compound, the “Mean percentage kill ABUTH” value [4] was 19.7 C %, the “Mean percentage kill CHEAL” value [5] was 34.7 C % and the “Mean percentage kill, Mean across species” value ([6]; Table 8, Example 6: fomesafen 60 or 120 g/ha, three replicates, 7, 14 and 20 days) was 31.0 C %. The “Mean percentage kill, Mean across species” value ([6]; Table 9, Example 6 second experiment: fomesafen 60 or 120 g/ha, three replicates, 6, 14 and 20 days, four weed species) was 44.9 B % and the “Mean percentage kill, Mean across species” value ([6]; Table 15, Example 11: fomesafen 60 or 120 g/ha, three replicates, 7, 14 and 20 days, four weed species) was 37.7 C %.
